In paper PMC4019635 (PLoS ONE, 2014):

Experiments:
RDLbdI/V = RDLbdI/V (Drosophila melanogaster, UniProt P25123, I283V); experiment: cell-based
RDLbdI/VA^301S = RDLbdI/VA^301S (Drosophila melanogaster, UniProt P25123, A301S/I283V); experiment: cell-based
Sequence of RDLbdI/VA^301S (P25123 45-606 I283V/A301S): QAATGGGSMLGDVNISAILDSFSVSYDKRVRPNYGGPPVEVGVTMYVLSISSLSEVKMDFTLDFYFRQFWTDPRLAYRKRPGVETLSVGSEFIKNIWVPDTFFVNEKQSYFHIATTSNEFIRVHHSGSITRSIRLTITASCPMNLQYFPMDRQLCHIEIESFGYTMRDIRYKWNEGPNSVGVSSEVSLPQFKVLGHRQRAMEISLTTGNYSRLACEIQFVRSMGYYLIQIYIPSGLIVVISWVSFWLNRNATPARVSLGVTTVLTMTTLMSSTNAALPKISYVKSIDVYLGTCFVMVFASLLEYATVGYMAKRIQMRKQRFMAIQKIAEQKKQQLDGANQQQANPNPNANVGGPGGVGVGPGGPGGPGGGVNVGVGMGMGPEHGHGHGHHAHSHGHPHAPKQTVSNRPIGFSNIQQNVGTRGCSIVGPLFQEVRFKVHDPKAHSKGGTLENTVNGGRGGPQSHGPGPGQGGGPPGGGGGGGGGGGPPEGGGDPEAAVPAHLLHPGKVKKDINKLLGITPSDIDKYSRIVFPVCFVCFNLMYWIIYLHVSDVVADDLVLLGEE

Sequence of RDLbdI/V (P25123 45-606 I283V): as the sequence (P25123 45-606 I283V/A301S) above, with S257A counted along it

Structure (SMILES) | IC50 (RDLbdI/V) [µM] | IC50 (RDLbdI/VA^301S) [µM] | EC50 (RDLbdI/V) [µM]
CC[C@H](C)[C@H]1O[C@]2(CC[C@@H]1C)C[C@@H]1C[C@@H](C/C=C(\C)[C@@H](O[C@H]3C[C@H](OC)[C@@H](O[C@H]4C[C@H](OC)[C@@H](O)[C@H](C)O4)[C@H](C)O3)[C@@H](C)/C=C/C=C3\CO[C@@H]4[C@H](O)C(C)=C[C@@H](C(=O)O1)[C@]34O)O2 [IVM, ivermectin] | 0.468 | 1.2 | –
NC/C=C/C(=O)O [TACA, trans-4-aminocrotonic acid] | – | – | 263
NCc1cc(=O)[nH]o1 [muscimol] | – | – | 95.5
NCCC(=O)O [β-alanine] | – | – | 3090
